*1 amine or outer side, *2 acyl side, *3 side chain or, on linkers, in order; H or OH if unused. Where a SMILES comes first, the peptide text is derived from it. [ ]: non-standard residue; d: D form. ξ: configuration not given here. Phe(3,4-Cl2) = N[C@@H](Cc1ccc(Cl)c(Cl)c1)C(=O)O; X1 = COc1c(I)cc(C[C@H](N[*:1])C(=O)[*:2])cc1I; ξTyr(3,5-I2) = NC(Cc1cc(I)c(O)c(I)c1)C(=O)O; Tyr(3-I) = N[C@@H](Cc1ccc(O)c(I)c1)C(=O)O; Phe(4-F) = N[C@@H](Cc1ccc(F)cc1)C(=O)O; NMeR = CN[C@@H](CCCNC(=N)N)C(=O)O; hArg = N=C(N)NCCCC[C@H](N)C(=O)O; Cha = N[C@@H](CC1CCCCC1)C(=O)O; NMeA = CN[C@@H](C)C(=O)O
Target: not listed separately
Test: Evaluated for the activation of human thrombin receptor measured by platelet aggregation

Row | EC50 | SMILES
1 | 270 nM | CC(C)C[C@H](NC(=O)[C@H](Cc1ccc(Cl)c(Cl)c1)NC(=O)[C@H](C)N)C(=O)N[C@@H](CC1CCCCC1)C(=O)N[C@@H](CCCNC(=N)N)C(N)=O [(S)-2-[(S)-2-((S)-2-Amino-propionylamino)-3-(3,4-dichloro-phenyl)-propionylamino]-4-methyl-pentanoic acid [(S)-1-((S)-1-carbamoyl-4-guanidino-butylcarbamoyl)-2-cyclohexyl-ethyl]-amide] (H-A[Phe(3,4-Cl2)]L[Cha]R-NH2)
2 | 800000 nM | CC(C)C[C@H](NC(=O)[C@H](Cc1ccccc1)NC(=O)[C@H](C)N)C(=O)N[C@@H](CC(C)C)C(=O)N(C)[C@@H](CCCNC(=N)N)C(N)=O [(S)-2-{(S)-2-[(S)-2-((S)-2-Amino-propionylamino)-3-phenyl-propionylamino]-4-methyl-pentanoylamino}-4-methyl-pentanoic acid ((S)-1-carbamoyl-4-guanidino-butyl)-methyl-amide] (H-AFLL[NMeR]-NH2)
3 | 31000 nM | CC(C)C[C@H](NC(=O)[C@H](CC(C)C)NC(=O)[C@H](Cc1ccccc1)NC(=O)[C@@H](N)Cc1cnc[nH]1)C(=O)N[C@@H](CCCNC(=N)N)C(N)=O [(S)-2-{(S)-2-[(S)-2-Amino-3-(3H-imidazol-4-yl)-propionylamino]-3-phenyl-propionylamino}-4-methyl-pentanoic acid [(S)-1-((S)-1-carbamoyl-4-guanidino-butylcarbamoyl)-3-methyl-butyl]-amide] (H-HFLLR-NH2)
4 | 10 nM | COc1c(I)cc(C[C@H](NC(=O)[C@H](Cc2ccc(Cl)c(Cl)c2)NC(=O)[C@H](C)N)C(=O)N[C@@H](CC2CCCCC2)C(=O)N[C@@H](CCCNC(=N)N)C(N)=O)cc1I [(S)-2-{(S)-2-[(S)-2-[(S)-2-((S)-2-Amino-propionylamino)-3-(3,4-dichloro-phenyl)-propionylamino]-3-(3,5-diiodo-4-methoxy-phenyl)-propionylamino]-3-cyclohexyl-propionylamino}-5-guanidino-pentanoic acid amide] (H-A[Phe(3,4-Cl2)][X1][Cha]R-NH2)
5 | 350000 nM | CC(C)C[C@H](NC(=O)[C@H](CC(C)C)N(C)C(=O)[C@H](Cc1ccccc1)NC(=O)[C@@H](N)CO)C(=O)N[C@@H](CCCNC(=N)N)C(N)=O [(S)-2-{[(S)-2-((S)-2-Amino-3-hydroxy-propionylamino)-3-phenyl-propionyl]-methyl-amino}-4-methyl-pentanoic acid [(S)-1-((S)-1-carbamoyl-4-guanidino-butylcarbamoyl)-3-methyl-butyl]-amide]
6 | > 800000 nM | CC(C)C[C@H](NC(=O)[C@H](CC(C)C)NC(=O)[C@H](Cc1ccccc1)NC(=O)[C@@H](N)CC(=O)O)C(=O)N[C@@H](CCCNC(=N)N)C(N)=O [(S)-3-Amino-N-((S)-1-{(S)-1-[(S)-1-((S)-1-carbamoyl-4-guanidino-butylcarbamoyl)-3-methyl-butylcarbamoyl]-3-methyl-butylcarbamoyl}-2-phenyl-ethyl)-succinamic acid] (H-DFLLR-NH2)
7 | 600000 nM | CN[C@@H](C)C(=O)N[C@@H](Cc1ccccc1)C(=O)N[C@@H](CC(C)C)C(=O)N[C@@H](CC(C)C)C(=O)N[C@@H](CCCNC(=N)N)C(N)=O [(S)-4-Methyl-2-[(S)-2-((S)-2-methylamino-propionylamino)-3-phenyl-propionylamino]-pentanoic acid [(S)-1-((S)-1-carbamoyl-4-guanidino-butylcarbamoyl)-3-methyl-butyl]-amide] (H-[NMeA]FLLR-NH2)
8 | 3300 nM | CC(C)C[C@H](NC(=O)[C@H](CC(C)C)NC(=O)[C@H](Cc1ccccc1)NC(=O)[C@@H](N)CO)C(=O)N[C@@H](CCCNC(=N)N)C(=O)N[C@@H](CC(N)=O)C(=O)N1CCC[C@H]1C(=O)N[C@@H](CC(N)=O)C(=O)N[C@@H](CC(=O)O)C(N)=O [SFLLRDPQD-NH2] (H-SFLLRNPND-NH2)

Row | SMILES | EC50
9 | CC(C)C[C@H](NC(=O)[C@H](CC(C)C)NC(=O)[C@H](Cc1ccccc1)NC(=O)[C@@H](N)Cc1ccc(O)cc1)C(=O)N[C@@H](CCCNC(=N)N)C(N)=O [(S)-2-{(S)-2-[(S)-2-Amino-3-(4-hydroxy-phenyl)-propionylamino]-3-phenyl-propionylamino}-4-methyl-pentanoic acid [(S)-1-((S)-1-carbamoyl-4-guanidino-butylcarbamoyl)-3-methyl-butyl]-amide] (H-YFLLR-NH2) | 400000 nM

Target: T1, Proteinase-activated receptor 1 (Homo sapiens, UniProt P25116)
T1 sequence (P25116 whole entry): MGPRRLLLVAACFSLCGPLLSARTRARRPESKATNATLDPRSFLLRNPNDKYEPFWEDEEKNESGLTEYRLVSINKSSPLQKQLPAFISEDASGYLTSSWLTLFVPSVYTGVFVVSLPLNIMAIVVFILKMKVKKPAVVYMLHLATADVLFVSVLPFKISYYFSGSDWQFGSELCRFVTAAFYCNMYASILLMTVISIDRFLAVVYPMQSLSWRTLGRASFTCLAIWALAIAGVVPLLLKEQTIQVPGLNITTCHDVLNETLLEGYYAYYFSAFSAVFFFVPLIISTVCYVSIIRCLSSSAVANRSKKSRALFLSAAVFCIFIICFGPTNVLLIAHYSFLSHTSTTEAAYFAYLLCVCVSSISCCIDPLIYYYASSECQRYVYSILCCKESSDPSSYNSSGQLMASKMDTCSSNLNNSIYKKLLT
Test: Evaluated for the activation of human thrombin receptor measured by platelet aggregation

Row | EC50 | SMILES
10 | 160 nM | C[C@H](N)C(=O)N[C@@H](Cc1ccc(F)cc1)C(=O)N[C@@H](CCCNC(=N)N)C(=O)N[C@@H](CC1CCCCC1)C(=O)N[C@@H](CCCCNC(=N)N)C(=O)N[C@@H](Cc1ccc(O)cc1)C(N)=O [(S)-2-((S)-2-{(S)-2-[(S)-2-((S)-2-Amino-propionylamino)-3-(4-fluoro-phenyl)-propionylamino]-5-guanidino-pentanoylamino}-3-cyclohexyl-propionylamino)-6-guanidino-hexanoic acid [1-carbamoyl-2-(4-hydroxy-phenyl)-ethyl]-amide] (H-A[Phe(4-F)]R[Cha][hArg]Y-NH2)

Target: not listed separately
Test: Evaluated for the activity of Radio-ligand Peptides upon the activation of human thrombin receptor measured by platelet aggregation

Row | EC50 | SMILES
11 | 150 nM | C[C@H](N)C(=O)N[C@@H](Cc1ccc(F)cc1)C(=O)N[C@@H](CCCNC(=N)N)C(=O)N[C@@H](CC1CCCCC1)C(=O)N[C@@H](CCCCNC(=N)N)C(=O)NC(Cc1cc(I)c(O)c(I)c1)C(N)=O (stereo partly drawn) [(S)-2-((S)-2-{(S)-2-[(S)-2-((S)-2-Amino-propionylamino)-3-(4-fluoro-phenyl)-propionylamino]-5-guanidino-pentanoylamino}-3-cyclohexyl-propionylamino)-6-guanidino-hexanoic acid [1-carbamoyl-2-(4-hydroxy-3,5-diiodo-phenyl)-ethyl]-amide] (H-A[Phe(4-F)]R[Cha][hArg][ξTyr(3,5-I2)]-NH2)
12 | 30 nM | C[C@H](N)C(=O)N[C@@H](Cc1ccc(F)cc1)C(=O)N[C@@H](CCCN=C(N)N)C(=O)N[C@@H](CC1CCCCC1)C(=O)N[C@@H](CCCCN=C(N)N)C(=O)N[C@@H](Cc1ccc(O)c(I)c1)C(N)=O [(S)-2-((S)-2-{(S)-2-[(S)-2-((S)-2-Amino-propionylamino)-3-(4-fluoro-phenyl)-propionylamino]-5-guanidino-pentanoylamino}-3-cyclohexyl-propionylamino)-6-guanidino-hexanoic acid [1-carbamoyl-2-(4-hydroxy-3-iodo-phenyl)-ethyl]-amide] (H-A[Phe(4-F)]R[Cha][hArg][Tyr(3-I)]-NH2)
13 | 300 nM | CC(C)C[C@H](NC(=O)[C@H](Cc1ccc(Cl)c(Cl)c1)NC(=O)[C@H](C)N)C(=O)N[C@@H](CC1CCCCC1)C(=O)N[C@@H](CCCNC(=N)N)C(N)=O [(S)-2-[(S)-2-((S)-2-Amino-propionylamino)-3-(3,4-dichloro-phenyl)-propionylamino]-4-methyl-pentanoic acid [(S)-1-((S)-1-carbamoyl-4-guanidino-butylcarbamoyl)-2-cyclohexyl-ethyl]-amide] (H-A[Phe(3,4-Cl2)]L[Cha]R-NH2)
14 | 1500 nM | COc1c(I)cc(C[C@H](NC(=O)[C@H](Cc2ccc(Cl)c(Cl)c2)NC(=O)[C@H](C)N)C(=O)N[C@@H](CC2CCCCC2)C(=O)N[C@@H](CCCNC(=N)N)C(N)=O)cc1I [(S)-2-{(S)-2-[(S)-2-[(S)-2-((S)-2-Amino-propionylamino)-3-(3,4-dichloro-phenyl)-propionylamino]-3-(3,5-diiodo-4-methoxy-phenyl)-propionylamino]-3-cyclohexyl-propionylamino}-5-guanidino-pentanoic acid amide] (H-A[Phe(3,4-Cl2)][X1][Cha]R-NH2)
